Source: the supplement of paper PMC8967900

Experiments:
Assay in all cases: selective drug sensitivity score (sDSS, relative to normal bone marrow) (sDSS (score)); higher = more potent and effective on the cell line relative to normal bone marrow cells
Settings in all cases: 72 h
[1] = test system: KASUMI-9
[2] = test system: RCH-ACV
[3] = test system: RPMI-8402
[4] = test system: COG-LL-355h
[5] = test system: MOLT-4
[6] = test system: KASUMI-2
[7] = test system: MN-60
[8] = test system: PEER
[9] = test system: MOLT-16
[10] = test system: SUP-B15
[11] = test system: COG-LL-402h
[12] = test system: MOLT-14
[13] = test system: NALM-6
[14] = test system: HPB-ALL
[15] = test system: ALL-PO
[16] = test system: JURKAT
[17] = test system: 697
[18] = test system: COG-LL-319h
[19] = test system: NALM-16
[20] = test system: TMD5
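Also: ALL cell lines in 384-well plates, five doses spanning 10,000-fold, each plate scaled between vehicle and 100 µmol/L benzalkonium chloride controls, sDSS an adapted area-under-curve metric.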

Structure (SMILES)	selective drug sensitivity score [1]	selective drug sensitivity score [2]	selective drug sensitivity score [3]	selective drug sensitivity score [4]	selective drug sensitivity score [5]	selective drug sensitivity score [6]	selective drug sensitivity score [7]	selective drug sensitivity score [8]	selective drug sensitivity score [9]	selective drug sensitivity score [10]	selective drug sensitivity score [11]	selective drug sensitivity score [12]	selective drug sensitivity score [13]	selective drug sensitivity score [14]	selective drug sensitivity score [15]	selective drug sensitivity score [16]	selective drug sensitivity score [17]	selective drug sensitivity score [18]	selective drug sensitivity score [19]	selective drug sensitivity score [20]
CCn1cc(-c2ccnc3[nH]c(-c4cccc(CN(C)C)c4)cc23)c(-c2ccc(NC(=O)N(C)C)cc2)n1 (top concentration 1000 nM)	20.3	14	8.86	8.36	13.1	17.7	-1.84	20.4	14.9	23.9	17.8	15.9	13.8	-0.44	13.2	-1.84	20.5	22.9	-1.84	13.5
Cc1cc(F)c(C(=O)Nc2cccc(-c3nncn3C(C)C)n2)cc1-n1cnc(C2CC2)c1 [Selonsertib] (top concentration 1000 nM)	1.2	0.5	0	0	0	0	0	0	0	0	0	0	0	0	0	0	0.3	0	0	6.7
O=C1CN2Cc3c(ccc(Cl)c3Cl)N=C2N1 [Anagrelide] (top concentration 10000 nM)	0	0	0	4.6	0	0	0	0	0	0	0	0	0	0	1	0	0	0	0	0
Oc1ncnc2[nH]ncc12 [Allopurinol] (top concentration 10000 nM)	-0.64	-0.64	-0.64	-0.64	-0.64	-0.64	-0.64	-0.64	-0.64	0.36	-0.64	-0.64	-0.04	6.06	-0.64	-0.64	-0.64	3.56	-0.64	-0.64
CC1(C)CNc2cc(NC(=O)c3cccnc3NCc3ccncc3)ccc21 [Motesanib] (top concentration 10000 nM)	-0.22	-0.22	-0.22	-0.22	-0.22	-0.22	-0.22	0.38	-0.22	-0.22	1.98	-0.22	1.28	-0.22	-0.22	-0.22	-0.22	0.08	-0.22	-0.22
Cc1c(Cn2c(C)nc3c(C(=O)O)cc(N4CCOCC4)cc32)cccc1C(F)(F)F (top concentration 10000 nM)	1.08	5.18	-0.02	1.98	-0.02	-0.02	-0.02	-0.02	-0.02	0.38	3.68	0.38	-0.02	-0.02	0.08	-0.02	1.28	-0.02	-0.02	-0.02
Cc1cc(-c2ncc(CC(=O)Nc3ccc(-c4cnccn4)cn3)cc2C)ccn1 [NVP-LGK974] (top concentration 10000 nM)	0.1	5.6	4.9	3.3	3.9	1	4.7	6.9	4.9	3.9	-0.1	1	3.7	-0.6	3.4	7.3	5.6	-1.3	0.7	3.4
CC1=C2C[C@H]3[C@@H](CC[C@@H]4C[C@H](NS(C)(=O)=O)CC[C@@]43C)[C@@H]2CC[C@@]2(C1)O[C@@H]1C[C@H](C)CN[C@H]1[C@H]2C [Saridegib] (top concentration 10000 nM)	-0.06	6.64	0.54	-0.96	-0.86	5.04	-1.16	2.94	-0.26	0.64	0.94	1.04	-1.16	0.34	1.74	-0.56	1.24	-0.06	0.04	1.74
Cn1cc(C[C@@H](N)C(=O)O)c2ccccc21 [1-methyl-D-tryptophan] (top concentration 5000 nM)	-0.62	-0.62	-0.62	-0.62	-0.62	0.38	-0.62	-0.62	-0.62	-0.62	-0.62	-0.62	-0.62	-0.62	-0.62	-0.62	-0.62	-0.62	-0.62	-0.62
